In this test the target is Tie-2 (Homo sapiens, UniProt Q02763). The test is described as follows: Tie-2 tyrosine kinase activity assay (luciferase/luciferin ATP consumption with pEY substrate, or 33P-ATP incorporation). Format: biochemical. To be noted: human enzyme Tie-2. Here is the method:
One measure of inhibition is Ki. […] The Ki for a compound is determined from the IC50 based on three assumptions. First, only one compound molecule binds to the enzyme and there is no cooperativity. […] Third, the enzymatic rate of the enzyme-inhibitor complex is zero. The rate data (i.e. compound concentration) are fitted to the equation:
[formula] where V is the observed rate, Vmax, is the rate of the free enzyme, I0 is the inhibitor concentration, E0 is the enzyme concentration, and Kd is the dissociation constant of the enzyme-inhibitor complex.
Tyrosine kinase activity is determined by 1) measurement of kinase-dependent ATP consumption by in the presence of a generic substrate such as […], tyrosine (pEY), by luciferase/luciferin-mediated chemiluminescence or; 2) incorporation of radioactive phosphate derived from ^33P-ATP into a generic substrate which has been adsorbed onto the well surface of polystyrene microtiter plates. Phosphorylated substrate products are quantified by scintillation spectrometry.
Inhibition is indicated as IC50 with following key: A=IC50 less than 50 nM, B=IC50 greater than 50 nM, but less than or equal to 1000 nM, C=IC50 greater than 1000 nM, but less than 10,000 nM, D=IC50 10,000 nM or greater, and “-”=no data available. The abbreviation for human enzyme, Tie-2, is defined as tyrosine kinase with immunoglobulin and EGF repeats.

Tie-2, sequence (Q02763 23-1124): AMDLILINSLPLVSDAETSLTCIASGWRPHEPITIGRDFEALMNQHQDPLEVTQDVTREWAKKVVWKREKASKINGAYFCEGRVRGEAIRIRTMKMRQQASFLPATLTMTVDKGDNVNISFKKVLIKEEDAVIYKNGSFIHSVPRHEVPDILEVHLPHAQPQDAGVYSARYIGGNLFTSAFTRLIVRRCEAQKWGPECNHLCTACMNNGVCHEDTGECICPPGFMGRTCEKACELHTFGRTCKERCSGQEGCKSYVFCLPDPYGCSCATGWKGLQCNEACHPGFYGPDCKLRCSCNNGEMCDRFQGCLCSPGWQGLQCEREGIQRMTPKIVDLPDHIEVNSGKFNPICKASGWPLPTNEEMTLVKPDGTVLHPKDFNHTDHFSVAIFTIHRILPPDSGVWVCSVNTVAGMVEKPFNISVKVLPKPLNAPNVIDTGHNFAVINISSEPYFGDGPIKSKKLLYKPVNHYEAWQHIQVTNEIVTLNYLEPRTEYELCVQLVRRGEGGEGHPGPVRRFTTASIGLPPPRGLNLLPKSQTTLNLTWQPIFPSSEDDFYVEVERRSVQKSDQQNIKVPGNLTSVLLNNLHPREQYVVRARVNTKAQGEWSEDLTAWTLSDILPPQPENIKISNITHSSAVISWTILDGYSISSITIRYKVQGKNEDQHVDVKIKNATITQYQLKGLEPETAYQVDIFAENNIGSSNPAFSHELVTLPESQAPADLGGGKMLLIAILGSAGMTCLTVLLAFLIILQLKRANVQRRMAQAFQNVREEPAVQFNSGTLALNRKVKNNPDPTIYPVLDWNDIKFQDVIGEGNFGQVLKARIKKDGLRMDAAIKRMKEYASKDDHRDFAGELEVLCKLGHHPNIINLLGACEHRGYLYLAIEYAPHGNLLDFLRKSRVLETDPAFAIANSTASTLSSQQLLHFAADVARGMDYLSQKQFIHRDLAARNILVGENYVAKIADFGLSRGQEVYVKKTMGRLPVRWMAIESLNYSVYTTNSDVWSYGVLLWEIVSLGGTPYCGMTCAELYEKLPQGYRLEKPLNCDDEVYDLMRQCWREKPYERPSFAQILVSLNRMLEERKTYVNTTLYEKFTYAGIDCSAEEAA

As a reminder, the IC50 is the point on the concentration scale where inhibition reaches its midpoint. Low readings indicate higher potency, high ones lower potency. `C[C@H]1CN(c2nsnc2OCc2ccncc2)CCN1C(=O)Nc1cccc(C(F)(F)F)c1` [Example 58, (2S)-2-methyl-4-{4-[(pyridin-4-ylmethyl)oxy]-1,2,5-thiadiazol-3-yl}-N-[3-(trifluoromethyl)phenyl]piperazine-1-carboxamide] gave an IC50 of 50 to 1000 nM.
`O=C(Cc1cc(C(F)(F)F)ccc1C(F)(F)F)NC1CCN(c2nsnc2OCc2ccncc2)C1` (centres unmarked) [Example 60, 2-[2,5-bis(trifluoromethyl)phenyl]-N-(1-{4-[(pyridin-4-ylmethyl)oxy]-1,2,5-thiadiazol-3-yl}pyrrolidin-3-yl)acetamide] registered an IC50 of 50 to 1000 nM.
Take `CC1CN(c2nsnc2OCc2ccncc2)CCN1C(=O)Cc1cc(C(F)(F)F)ccc1C(F)(F)F` (centres unmarked) [Example 61, 1-{[2,5-bis(trifluoromethyl)phenyl]acetyl}-2-methyl-4-{4-[(pyridin-4-ylmethyl)oxy]-1,2,5-thiadiazol-3-yl}piperazine]: the half-inhibitory concentration (IC50) is 50 to 1000 nM.
For the molecule `CC1CN(c2nccnc2OCc2ccncc2)CCN1C(=O)Nc1cc(C(F)(F)F)cc(C(F)(F)F)c1` (centres unmarked) [Example 62, N-[3,5-bis(trifluoromethyl)phenyl]-2-methyl-4-{3-[(pyridin-4-ylmethyl)oxy]pyrazin-2-yl}piperazine-1-carboxamide], the IC50 is less than 50 nM.
On to `CC1CN(c2nccnc2OCc2ccncc2)CCN1C(=O)Nc1cccc(C(F)(F)F)c1` (centres unmarked) [Example 63, 2-methyl-4-{3-[(pyridin-4-ylmethyl)oxy]pyrazin-2-yl}-N-[3-(trifluoromethyl)phenyl]piperazine-1-carboxamide], for which the IC50 was in the range of 50 to 1000 nM.
For `CC1CN(c2nccnc2OCc2ccncc2)CC(C)N1C(=O)Nc1cc(C(F)(F)F)cc(C(F)(F)F)c1` (centres unmarked) [Example 64, N-[3,5-bis(trifluoromethyl)phenyl]-2,6-dimethyl-4-{3-[(pyridin-4-ylmethyl)oxy]pyrazin-2-yl}piperazine-1-carboxamide] the value was 50 to 1000 nM.
`CC1CN(c2nccnc2OCc2ccncc2)CC(C)N1C(=O)Nc1cccc(C(F)(F)F)c1` (centres unmarked) [Example 65, 2,6-dimethyl-4-{3-[(pyridin-4-ylmethyl)oxy]pyrazin-2-yl}-N-[3-(trifluoromethyl)phenyl]piperazine-1-carboxamide] showed an IC50 of 50 to 1000 nM.
For the molecule `O=C(Nc1cccc(C(F)(F)F)c1)NC1CCN(c2nccnc2OCc2ccncc2)C1` (centres unmarked) [Example 66, N-(1-{3-[(pyridin-4-ylmethyl)oxy]pyrazin-2-yl}pyrrolidin-3-yl)-N′-[3-(trifluoromethyl)phenyl]urea], the IC50 was in the range of 50 to 1000 nM.
Consider `O=C(Nc1cc(C(F)(F)F)cc(C(F)(F)F)c1)NC1CCN(c2nccnc2OCc2ccncc2)C1` (centres unmarked) [Example 67, N-[3,5-bis(trifluoromethyl)phenyl]-N′-(1-{3-[(pyridin-4-ylmethyl)oxy]pyrazin-2-yl}pyrrolidin-3-yl)urea], for which the IC50 lay in the range of 50 to 1000 nM.
Molecule `CC1CN(c2nsnc2OCc2ccncc2)CC(C)N1C(=O)Nc1cc(C(F)(F)F)cc(C(F)(F)F)c1` (centres unmarked) [Example 68, N-[3,5-bis(trifluoromethyl)phenyl]-2,6-dimethyl-4-{4-[(pyridin-4-ylmethyl)oxy]-1,2,5-thiadiazol-3-yl}piperazine-1-carboxamide] displayed an IC50 of 50 to 1000 nM.
As for `CC1CN(c2nsnc2OCc2ccncc2)CC(C)N1C(=O)Nc1cccc(C(F)(F)F)c1` (centres unmarked) [Example 69, 2,6-dimethyl-4-{4-[(pyridin-4-ylmethyl)oxy]-1,2,5-thiadiazol-3-yl}-N-[3-(trifluoromethyl)phenyl]piperazine-1-carboxamide], the IC50 lay in the range of 50 to 1000 nM.
`CC1CN(C(=O)Nc2cc(C(F)(F)F)cc(C(F)(F)F)c2)CCN1c1nccnc1OCc1ccncc1` (centres unmarked) [Example 70, N-[3,5-bis(trifluoromethyl)phenyl]-3-methyl-4-{3-[(pyridin-4-ylmethyl)oxy]pyrazin-2-yl}piperazine-1-carboxamide] displayed an IC50 of less than 50 nM.
As for `CC1CN(C(=O)Nc2cccc(C(F)(F)F)c2)CCN1c1nccnc1OCc1ccncc1` (centres unmarked) [Example 71, 3-methyl-4-{3-[(pyridin-4-ylmethyl)oxy]pyrazin-2-yl}-N-[3-(trifluoromethyl)phenyl]piperazine-1-carboxamide], the IC50 fell in the range of 50 to 1000 nM.
Molecule `O=C(Nc1cc(C(F)(F)F)cc(C(F)(F)F)c1)N1CCN(c2ccccc2OCc2ccncc2)CC1` [Example 72, N-[3,5-bis(trifluoromethyl)phenyl]-4-{2-[(pyridin-4-ylmethyl)oxy]phenyl}piperazine-1-carboxamide] yielded an IC50 of less than 50 nM.
As for `O=C(Nc1cccc(C(F)(F)F)c1)N1CCN(c2ccccc2OCc2ccncc2)CC1` [Example 73, 4-{2-[(pyridin-4-ylmethyl)oxy]phenyl}-N-[3-(trifluoromethyl)phenyl]piperazine-1-carboxamide], the IC50 is 50 to 1000 nM.
`CC1CN(c2nc3ccccc3nc2OCc2ccncc2)CCN1C(=O)Nc1cc(C(F)(F)F)cc(C(F)(F)F)c1` (centres unmarked) [Example 74, N-[3,5-bis(trifluoromethyl)phenyl]-2-methyl-4-{3-[(pyridin-4-ylmethyl)oxy]quinoxalin-2-yl}piperazine-1-carboxamide] returned an IC50 of 50 to 1000 nM.
`O=C(Nc1cc(C(F)(F)F)cc(C(F)(F)F)c1)N1CCCN(c2nccnc2OCc2ccncc2)CC1` [Example 75, N-[3,5-bis(trifluoromethyl)phenyl]-4-{3-[(pyridin-4-ylmethyl)oxy]pyrazin-2-yl}-1,4-diazepane-1-carboxamide] displayed an IC50 of 50 to 1000 nM.
As for `CC1CN(c2nc3ccccc3nc2OCc2ccncc2)CCN1C(=O)Nc1cccc(C(F)(F)F)c1` (centres unmarked) [Example 76, 2-methyl-4-{3-[(pyridin-4-ylmethyl)oxy]quinoxalin-2-yl}-N-[3-(trifluoromethyl)phenyl]piperazine-1-carboxamide], the figure is 50 to 1000 nM; as for `O=C(Nc1cccc(C(F)(F)F)c1)N1CCCN(c2nccnc2OCc2ccncc2)CC1` [Example 77, 4-{3-[(pyridin-4-ylmethyl)oxy]pyrazin-2-yl}-N-[3-(trifluoromethyl)phenyl]-1,4-diazepane-1-carboxamide], 50 to 1000 nM.
`CC1CN(c2nccnc2OCc2ccncc2)C(C)CN1C(=O)Nc1cc(C(F)(F)F)cc(C(F)(F)F)c1` (centres unmarked) [Example 78, N-[3,5-bis(trifluoromethyl)phenyl]-2,5-dimethyl-4-{3-[(pyridin-4-ylmethyl)oxy]pyrazin-2-yl}piperazine-1-carboxamide] showed an IC50 of less than 50 nM.
With `CC1CN(c2nccnc2OCc2ccncc2)C(C)CN1C(=O)Nc1cccc(C(F)(F)F)c1` (centres unmarked) [Example 79, 2,5-dimethyl-4-{3-[(pyridin-4-ylmethyl)oxy]pyrazin-2-yl}-N-[3-(trifluoromethyl)phenyl]piperazine-1-carboxamide], the IC50 is 50 to 1000 nM.
Regarding `C[C@H]1CN(c2nccnc2OCc2ccncc2)CCN1C(=O)Nc1cc(C(F)(F)F)cc(C(F)(F)F)c1` [Example 80, (2S)-N-[3,5-bis(trifluoromethyl)phenyl]-2-methyl-4-{3-[(pyridin-4-ylmethyl)oxy]pyrazin-2-yl}piperazine-1-carboxamide], the IC50 is less than 50 nM.
Turning to `C[C@H]1CN(c2nccnc2OCc2ccncc2)CCN1C(=O)Nc1cccc(C(F)(F)F)c1` [Example 81, (2S)-2-methyl-4-{3-[(pyridin-4-ylmethyl)oxy]pyrazin-2-yl}-N-[3-(trifluoromethyl)phenyl]piperazine-1-carboxamide], the IC50 was less than 50 nM.
For `O=C(Nc1cc(C(F)(F)F)cc(C(F)(F)F)c1)N1CCN(c2nsnc2OCc2ccnc(F)c2)CC1` [Example 82, N-[3,5-bis(trifluoromethyl)phenyl]-4-(4-{[(2-fluoropyridin-4-yl)methyl]oxy}-1,2,5-thiadiazol-3-yl)piperazine-1-carboxamide], the IC50 lay within 1000 to 10000 nM.
Regarding `O=C(Nc1cc(C(F)(F)F)cc(C(F)(F)F)c1)N1CCN(c2nsnc2OCc2ccnc(Cl)c2)CC1` [Example 83, N-[3,5-bis(trifluoromethyl)phenyl]-4-(4-{[(2-chloropyridin-4-yl)methyl]oxy}-1,2,5-thiadiazol-3-yl)piperazine-1-carboxamide], the IC50 is 1000 to 10000 nM.
With `O=C(Nc1cc(C(F)(F)F)cc(C(F)(F)F)c1)N1CCN(c2nccnc2OCc2ccnc(Cl)c2)CC1` [Example 84, N-[3,5-bis(trifluoromethyl)phenyl]-4-(3-{[(2-chloropyridin-4-yl)methyl]oxy}pyrazin-2-yl)piperazine-1-carboxamide], the IC50 lay within 50 to 1000 nM.
For the molecule `O=C(Nc1cc(C(F)(F)F)cc(C(F)(F)F)c1)N1CCN(c2nsnc2OCc2ccnc(Br)c2)CC1` [Example 87, N-[3,5-bis(trifluoromethyl)phenyl]-4-(4-{[(2-bromopyridin-4-yl)methyl]oxy}-1,2,5-thiadiazol-3-yl)piperazine-1-carboxamide], the IC50 lay in the range of 1000 to 10000 nM.
`O=C(Nc1cc(C(F)(F)F)cc(C(F)(F)F)c1)N1CCN(c2nccnc2OCc2ccnc(F)c2)CC1` [Example 89, N-[3,5-bis(trifluoromethyl)phenyl]-4-(3-{[(2-fluoropyridin-4-yl)methyl]oxy}pyrazin-2-yl)piperazine-1-carboxamide] gave an IC50 of 50 to 1000 nM.
Turning to `N#Cc1nc(OCc2ccncc2)c(N2CCN(C(=O)Nc3cc(C(F)(F)F)cc(C(F)(F)F)c3)CC2)nc1C#N` [Example 90, N-[3,5-bis(trifluoromethyl)phenyl]-4-{5,6-dicyano-3-[(pyridin-4-ylmethyl)oxy]pyrazin-2-yl}piperazine-1-carboxamide], the IC50 lay in the range of 50 to 1000 nM.

Source of the values: patent publication US8013156B2 (Exelixis, Inc., priority 2003, dated 2011).
